Reference: US20020177203A1, “Alpha2 subunit of prolyl 4-hydroxylase” (priority 1996, published 2002)

Columns and labels:
[1] = biological target: T1, human type 1 prolyl 4-hydroxylase tetramer (α12β2) (Homo sapiens, UniProt P13674); experiment: Prolyl 4-hydroxylase activity assay (decarboxylation of 2-oxo[1-14C]glutarate), type 1 enzyme; assay type: biochemical; details: α12β2, recombinant enzyme from insect cells, 0.1% Triton X-100 extract
T1 construct: made in house; host or cells: Spodoptera frugiperda Sf9 insect cells (baculovirus co-infection); 0.1% Triton X-100 extract
Experimental: (§1) A recombinant baculovirus coding for the mouse α2 subunit was generated and used to infect S. frugiperda insect cells with or without the human PDI/β subunit, wherein the insect cells were infected at a multiplicity of 5. For production of an enzyme tetramer, the human α59 1 (see, Vuori, et al., supra) or mouse α2 viruses and the PDI/β viruses (id.) were used in a 1:1 or 2:1 ratio. […] The resulting supematants were analyzed by SDS/8% PAGE or nondenaturing 7.5% PAGE and assayed for enzyme activities. The cell pellets were further solubilized in 1% SDS, and the 0.1% Triton X-100-soluble and 1% SDS-soluble proteins were analyzed by SDS/PAGE under reducing for the α1 subunit of prolyl 4-hydroxylase (Veijola et al., supra; Vuori et al., supra; John et al. […] The 0.1% Triton X-100 extracts from cell homogenates containing either the mouse-human type II or the human type I enzyme were analyzed for prolyl 4-hydroxylase activity with an assay based on the hydroxylation-coupled decarbosylation of 2-oxo[1^14C]glutarate (Kivirikko and Myllyla, supra).

[2] = biological target: T2, mouse/human type 2 prolyl 4-hydroxylase tetramer (α22β2) (Mus musculus, UniProt Q60716); experiment: Prolyl 4-hydroxylase activity assay (decarboxylation of 2-oxo[1-14C]glutarate), type 2 enzyme; assay type: biochemical; details: for IC50: α22β2, footnote: values determined as IC50, read-out: Ki column, values determined as IC50
T2 construct: the cDNA clones, considered in combination, cover the whole coding region of the mouse α2 subunit; made in house; host or cells: Spodoptera frugiperda Sf9 insect cells (baculovirus pVL1392 construct, co-infection with PDI/β virus); 0.1% Triton X-100 extract
Experimental: as §1

[3] = α22β2 (mouse α2, human PDI/β), recombinant enzyme from insect cells

T1 sequence (P13674 18-534): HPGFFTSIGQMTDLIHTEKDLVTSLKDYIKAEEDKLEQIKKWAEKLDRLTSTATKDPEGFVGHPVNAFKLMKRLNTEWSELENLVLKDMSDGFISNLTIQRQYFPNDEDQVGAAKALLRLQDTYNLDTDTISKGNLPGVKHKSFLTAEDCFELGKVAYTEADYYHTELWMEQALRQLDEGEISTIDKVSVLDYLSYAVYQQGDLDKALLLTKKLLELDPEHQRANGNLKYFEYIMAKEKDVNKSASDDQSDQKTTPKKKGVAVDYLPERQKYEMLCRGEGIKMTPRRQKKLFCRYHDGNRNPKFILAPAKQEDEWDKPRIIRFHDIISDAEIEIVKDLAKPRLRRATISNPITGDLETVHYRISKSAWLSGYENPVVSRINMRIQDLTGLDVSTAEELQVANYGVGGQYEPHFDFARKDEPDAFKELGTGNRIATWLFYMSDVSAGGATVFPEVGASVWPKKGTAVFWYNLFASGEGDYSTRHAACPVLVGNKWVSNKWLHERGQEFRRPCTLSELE
T1 sequence (P07237 18-508 partner): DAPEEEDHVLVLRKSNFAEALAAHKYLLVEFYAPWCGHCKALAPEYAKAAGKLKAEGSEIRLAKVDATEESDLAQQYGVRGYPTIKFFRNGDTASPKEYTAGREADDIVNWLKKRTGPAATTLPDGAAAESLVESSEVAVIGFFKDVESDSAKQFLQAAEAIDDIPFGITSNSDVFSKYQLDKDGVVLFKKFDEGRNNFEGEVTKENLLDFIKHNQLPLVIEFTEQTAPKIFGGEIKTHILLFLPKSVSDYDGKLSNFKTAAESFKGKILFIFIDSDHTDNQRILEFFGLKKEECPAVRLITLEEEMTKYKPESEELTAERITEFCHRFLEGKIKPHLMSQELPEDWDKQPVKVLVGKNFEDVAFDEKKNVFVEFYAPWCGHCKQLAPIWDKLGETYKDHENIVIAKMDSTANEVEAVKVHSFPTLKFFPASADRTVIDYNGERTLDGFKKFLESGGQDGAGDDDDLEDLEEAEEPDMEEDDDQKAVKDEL
T2 sequence (Q60716 20-537 limits assumed): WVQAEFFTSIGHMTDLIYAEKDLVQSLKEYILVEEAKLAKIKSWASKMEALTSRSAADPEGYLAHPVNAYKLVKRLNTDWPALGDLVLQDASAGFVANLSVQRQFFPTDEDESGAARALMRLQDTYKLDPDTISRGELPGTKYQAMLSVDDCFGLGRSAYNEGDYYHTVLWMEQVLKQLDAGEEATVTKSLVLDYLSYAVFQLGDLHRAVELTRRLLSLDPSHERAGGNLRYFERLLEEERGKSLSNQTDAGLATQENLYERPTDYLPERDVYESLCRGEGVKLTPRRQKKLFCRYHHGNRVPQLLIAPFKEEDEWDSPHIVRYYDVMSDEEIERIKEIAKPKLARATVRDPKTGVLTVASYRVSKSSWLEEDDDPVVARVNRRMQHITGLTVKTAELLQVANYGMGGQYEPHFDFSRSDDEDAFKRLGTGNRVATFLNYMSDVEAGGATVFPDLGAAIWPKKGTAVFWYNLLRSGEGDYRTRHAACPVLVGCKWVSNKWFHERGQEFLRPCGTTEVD
T2 sequence (P07237 18-508 partner): as the sequence (P07237 18-508 partner) above

| Compound | Km [1] | Km [2, 3] | Ki [1] | further results |
| --- | --- | --- | --- | --- |
| (Pro-Pro-Gly)10 [(Pro--Pro--Gly)] | 18 µM | 45 µM |  |  |
| O=C(O)CCC(=O)C(=O)O [2-Oxoglutatrate, 2-oxoglutarate] | 22 µM | 12 µM |  |  |
| Poly(t-proline), Mt 44,000 |  |  | 20 nM | IC50 [2]: 30000 nM |
| O=C(O)c1ccnc(C(=O)O)c1 [Pyridine-2,4-dicarboxylate] |  |  | 2000 nM | Ki [2, 3]: 1000 nM |
| poly (L-proline) |  |  |  | inhibition of the type 2 enzyme ([2]; type 2 enzyme compared with type 1): inhibited by poly (L-proline) only at very high concentrations |
| Poly(t-proline), Mt 7000 |  |  | 500 nM | IC50 [2]: 300000 nM |
| [Fe+2] [Fe^2+] | 4 µM | 4 µM |  |  |
